Experimental data: patent US8536132B2, “Lymphatic zip codes in tumors and pre-malignant lesions” (Sanford-Burnham Medical Research Institute, priority 2006, dated 2013)
“Also recorded” adds a separate entry of the source. Ends that are not written are not given here. * marks the point of attachment. FITC = O=C1OC2(c3ccc(O)cc3Oc3cc(O)ccc32)c2ccc(NC(=S)*)cc21

How the values were obtained:
[1] = test system: TRAMP PIN lesions; test: In vivo phage homing to TRAMP pre-malignant (PIN) lesions; parameters: species or system mouse; conditions: phage clones tested in vivo individually
Protocol: (§1) The following cell lines were maintained in DMEM supplemented with 10% FCS: C8161 human melanoma, MDA-MB-435 human breast cancer, KRIB human osteosarcoma, and human prostate cancer cells PPC1, DU145. LNCaP human prostate cancer cell line was grown in RPMI 1640 medium with 10 mM HEPES, 1 mM sodium pyruvate and 1.5 g/L sodium bicarbonate supplemented with 10% FCS. M12 human prostate cancer cell line was cultured in RPMI 1640 with 5 μg/ml insulin-transferrin-sodium selenite (ITS), 2.5 μg/ml fungizone, 50 μg/ml gentamycin, 0.2 μM dexamethasone, 10 ng/ml epidermal growth factor (EGF), and 5% FCS (Bae et al., 1998). To produce tumors, nude BALB/c and C56BL/6 mice were subcutaneously (C8161, KRIB, and PPC1) or orthotopically ([…], PPC1, DU145, M12, and LNCaP) injected with 1×10^6 tumor cells. Transgenic mouse tumor models included TRAMP prostate cancer, MMTV-PyMT breast cancer, and K14-HPV16 cervical cancer. To initiate cervical carcinogenesis, female K14-HPV16 mice (Arbeit et al., 1994) were treated with 17β-estradiol (E2; (Arbeit et al., 1996; Giraudo et al., 2004). Briefly, one-month-old virgin female transgenic (heterozygous K14-HPV16, 1203#1) and nontransgenic (FVB/n) mice were anesthetized with isoflurane, and continuous release pellets that deliver E2 at doses of 0.05 mg over 60 days (Innovative Research of America, Sarasota, Fla., USA) were implanted subcutaneously in the dorsal back skin. Subsequent pellets were implanted at 3 and 5 months of age for a total of 6 months of hormone treatment. K14-HPV16 mice were maintained in the FVB/n background (FVB/n; The Jackson Laboratory). The mice were maintained in accordance with the University of California, San Francisco (UCSF) institutional guidelines governing the care of laboratory mice. The animal experimentation was approved by Animal Research Committees at UCSF or The Burnham Institute.
(§2) In vivo homing specificity of phage was tested as described (Hoffman, 2004). Briefly, mice bearing tumors were anesthetized and intravenously injected with 5×10^9 pfu of phage. After 7 min, the mice were perfused through the heart with PBS containing 0.5% BSA. The tumor and control organs were dissected from each mouse and the phage were rescued and tittered. For histology analysis, the mice were perfused with 4% PFA 30 min after the injection of phage. Tissues were embedded in Tissue-Tek O.C.T. and 5 μm sections were prepared for phage immunostaining.

[2] = test system: cell suspension derived from pre-malignant prostate lesions; test: Phage binding to cell suspension derived from pre-malignant prostate lesions; assay type: cell-based, mouse; conditions: phage clones
Protocol: (§3) An NNK-encoded CX7C library display on T7Select415-1 phage (Novagen) was prepared as previously described (Laakkonen et al., 2002). Phage selection and validation have been described (Hoffman, 2004). A two-step procedure was designed for the selection of peptides targeting the tumor lymphatic vessels of pre-malignant prostate lesions and prostate tumor. First, the phage library was incubated with cells derived from normal prostate to subtract the phage that bind to normal prostate. Second, the anti-podoplanin magnetic beads were used to isolate lymphatic endothelial cells. 2-3 rounds of ex vivo selection and 2-3 rounds of in vivo selections were performed. For the ex vivo selections, cell suspensions were prepared from normal prostates of tumor-free littermates of TRAMP mice, pre-malignant prostates of 14- to 16-week-old TRAMP mice, and tumor tissues of 25- to 28-week-old TRAMP mice. Collagenase IA (1 mg/ml, Sigma) was used to disperse the tissues. About 1×10^7 normal prostate cells were incubated at 4° C. for 3 hrs with […] plaque forming units (pfu) of T7 phage displaying a CX7C peptide library. The samples were centrifuged at 1200 rpm for 10 min, the supernatant (the normal prostate-subtracted phage library) was recovered and then incubated overnight at 4° C. with 5×10^7 cells derived from pre-malignant prostate tissue or prostate tumor. The cells were washed to remove unbound phage, incubated with rat anti-mouse podoplanin for 45 min at 4° C., and washed three times with cold PBS containing 0.5% BSA. Podoplanin-positive cells were then isolated using M450 sheep anti-rat IgG Dynabeads (M450; Dynal, Oslo, Norway). Phage that bound to the podoplanin-positive cell population were rescued and amplified in E. coli. In vivo phage library screening was performed as described (Laakkonen et al., 2002).

[3] = test system: K14-HPV16 skin cancer; test: In vivo homing to K14-HPV16 skin cancer; parameters: species or system mouse; conditions: i.v. injection, K14-HPV16 mice
Protocol: as §1, §2

[4] = test system: MDA-MB-435 orthotopic xenografts; test: In vivo phage homing to MDA-MB-435 orthotopic xenografts; parameters: species or system mouse; conditions: for phage homing to MDA-MB-435 tumors (in words): i.v. injected phage
Protocol: as §1, §2

[5] = test system: K14-HPV16/E2 cervical tumors; test: In vivo phage homing to K14-HPV16/E2 cervical tumors; parameters: species or system mouse; conditions: for phage homing to K14-HPV16/E2 cervical tumors (in words): i.v. injected phage
Protocol: as §1, §2

[6] = test system: normal tissues; test: In vivo phage homing to normal and control tissues; parameters: species or system mouse; conditions: i.v. injected phage
Protocol: as §2

[7] = target: T1, CXCR4 (Homo sapiens, UniProt P61073); test: Phage binding to CXCR4-transfected 293T cells; conditions: 293T cells
T1 construct: expressed in transfected cells; host or cells: 293T cells, transient transfection with FuGene 6
T1 sequence (P61073 whole entry, species assumed): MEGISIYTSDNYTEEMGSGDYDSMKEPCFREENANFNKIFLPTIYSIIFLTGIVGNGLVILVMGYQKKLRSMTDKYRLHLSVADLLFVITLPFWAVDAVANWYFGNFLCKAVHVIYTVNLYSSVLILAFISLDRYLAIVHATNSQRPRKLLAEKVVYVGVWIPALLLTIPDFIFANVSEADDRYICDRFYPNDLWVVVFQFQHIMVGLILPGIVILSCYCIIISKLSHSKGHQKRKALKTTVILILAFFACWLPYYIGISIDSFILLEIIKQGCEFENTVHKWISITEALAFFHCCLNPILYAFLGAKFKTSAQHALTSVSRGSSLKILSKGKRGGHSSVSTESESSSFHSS
Protocol: (§4) The 293T cells were transfected with plasmids encoding CXCR4 (Helbig et al., 2003) or VEGFR2 (Borges et al., 2000) using FuGene 6 transfection reagent (Roche Diagnostics, Indianapolis, Ind.). Briefly, plasmid (10 μg) was mixed with 900 μl of serumfree DMEM and 50 μl of FuGene and incubated for 15 min at room temperature before adding the mixture to the cells. The cells were detached using EDTA after 48 hrs post transfection and washed with PBS containing 1% BSA. Phage (5×10^9 pfu) were incubated with the transfected cells and bound phage were rescued and titrated. For competitive binding assay, the cognate peptide (150 μg/ml) or antibody (50 μg/ml) was added during incubating of the phage with cells. Targeted proapoptotic peptide treatment of tumor-bearing mice Prostate cancer model. Orthotopic xenografted prostate tumors were established by injecting 1×10^6 PPC1 human prostate cancer cells into the mouse prostate. Fifteen days post inoculation, the mice were intravenously injected with D(KLAKLAK)2-CREAGRKAC (SEQ ID NO:41), an equimolar mixture of D(KLAKLAK)2 (SEQ ID NO:19) and CREAGRKAC (SEQ ID NO:6), or PBS. Biweekly injections of 100 μg/dose/mouse were given for three weeks. Melanoma model. Nude BALB/c mice were subcutaneously injected with 1×10^6 C8161 human melanoma cells. Treatment started when mean tumor volumes reached about 100 mm3. Mice with size-matched tumors were randomized into three groups. The therapeutic group received a chimera of tumor homing peptide with the proapoptotic motif (D(KLAKLAK)2-CLSDCGKRKC; SEQ ID NO:42). The control groups received an equimolar mixture of CLSDGKRKC (SEQ ID NO:4) and D(KLAKLAK)2 (SEQ ID NO:19), or PBS alone. The tumor-bearing mice were intravenously injected with 200 μg/dose/mouse once a week for three weeks. The mice were monitored for weight loss, and tumors were dissected and weighed at the termination of the experiment. Histological analysis was performed to evaluate the density of tumor lymphatics and blood vessels. The animal experiments reported here were approved by The Burnham Institute Animal Research Committee.

[8] = test system: TRAMP prostate tumors; test: In vivo phage homing to TRAMP prostate tumors; parameters: species or system mouse; conditions: i.v. injected phage clone
Protocol: as §1, §2

[9] = test system: tumor derived cell suspensions (TRAMP); test: Phage binding to TRAMP tumor derived cell suspensions; assay type: cell-based, mouse; conditions: phage clones
Protocol: as §3

[10] = test system: C8161 xenografts; test: In vivo phage homing to C8161 xenograft tumors; parameters: species or system mouse; conditions: i.v. injected phage, C8161 xenograft mice
Protocol: as §1, §2

[11] = test system: cell suspensions prepared from C8161 tumors; test: Phage binding to cell suspensions prepared from C8161 tumors; assay type: cell-based, mouse; conditions: phage clone, ex vivo
[12] = test system: K14-HPV16/E2 cervical dysplasia; test: In vivo phage homing to K14-HPV16/E2 cervical dysplasia (CIN-3); parameters: species or system mouse; conditions: for phage homing to K14-HPV16/E2 pre-malignant cervical lesions (in words): i.v. injected phage
Protocol: as §1, §2

[13] = test system: PPC1 orthotopic xenografts; test: Targeted proapoptotic peptide treatment of mice with PPC1 orthotopic xenografts; assay type: in vivo; conditions: 100 μg/dose/mouse biweekly i.v., three weeks
Protocol: as §4

[14] = test system: K14-HPV16/E2 cervical lesions; test: Distribution of fluorescent peptides in K14-HPV16/E2 mice with cervical lesions; assay type: in vivo, mouse; conditions: for fluorescent peptide in normal cervix and control tissues: 100 μg i.v., 2 hrs; for fluorescent peptide in K14-HPV16/E2 cervical lesions/tumors (in words): labeled peptide i.v.
Protocol: The frozen sections were prepared for immunohistological analysis.

[15] = phage homing in vivo, MDA-MB-435 orthotopic xenografts
[16] = phage homing in vivo, K14-HPV16/E2 cervical cancer / cervical tumors
[17] = phage homing in vivo, K14-HPV16/E2 cervical dysplasia
[18] = listed as Fluoresceinlabeled LyP-2 peptide

Substance: CASLSCR
- enrichment to pre-malignant TRAMP lesions relative to nonrecombinant phage [1]: 12 fold
- binding to cell suspension from pre-malignant prostate lesions (in words) [2]: bound

Substance: CGNKRTRGC [LyP-1, previously described lymphatic homing peptide recognizing breast cancer lymphatics and tumor cells, reference compound]
- homing to K14-HPV16 skin cancers (in words) [3]: homed to the K14-HPV16 skin cancer lymphatics
- phage homing to MDA-MB-435 tumors (in words) [4]: homes to the MDA-MB-435 tumors
- phage homing to MDA-MB-435 tumors (in words) ([4]; listed as LyP-1 phage): homed to MDA-MB-435 tumors
- phage homing to K14-HPV16/E2 cervical tumors (in words) [5]: not to the cervical tumors
- phage homing to normal breast tissue [6]: Neither phage homed
- phage homing to normal cervix [6]: Neither phage homed
- phage binding to CXCR4-transfected 293T cells (in words) [7]: did not bind

Substance: CKTRVSCGV
- enrichment in TRAMP tumors relative to nonrecombinant phage [8]: about 30 fold
- binding to TRAMP tumor derived cell suspensions (in words) [9]: robust binding

Substance: CLDGGRPKC
- phage homing to C8161 tumors (in words) [10]: homed selectively to the tumors
- binding to cell suspensions prepared from C8161 tumors (in words) [11]: bound to cell suspensions prepared from C8161 tumors

Substance: CNRRTKAGC [LyP-2, homing peptide from K14-HPV16 dysplastic skin lesions; homes to cervical lesion lymphatics]
- homing to K14-HPV16 skin cancers (in words) [3]: homed to the lymphatics associated with dysplasias and squamous cell carcinomas in the skin; also recorded: homed to the K14-HPV16 skin cancer lymphatics
- Fold over control phage [4, 15]: 3 fold
- Specific Homing [4, 15]: No
- phage homing to K14-HPV16/E2 cervical tumors (in words) [5]: homes to the cervical cancers and pre-malignant lesions
- phage homing to K14-HPV16/E2 cervical tumors (in words) ([5]; listed as LyP-2 phage): Significantly more; also recorded: robust homing
- Fold over control phage [5, 16]: 22 fold
- Specific Homing [5, 16]: Yes
- phage homing to K14-HPV16/E2 pre-malignant cervical lesions (in words) [12]: homes to the cervical cancers and pre-malignant lesions
- phage homing to K14-HPV16/E2 pre-malignant cervical lesions (in words) ([12]; listed as LyP-2 phage): Significantly more; also recorded: robust homing
- Fold over control phage [12, 17]: 17 fold
- Specific Homing [12, 17]: Yes
- phage homing to normal breast tissue [6]: Neither phage homed
- phage homing to normal cervix [6]: Neither phage homed
- phage homing to normal cervix ([6]; listed as LyP-2 phage): not to normal cervix

Substance: CSGGKVLDC
- enrichment to pre-malignant TRAMP lesions relative to nonrecombinant phage [1]: 14 fold
- binding to cell suspension from pre-malignant prostate lesions (in words) [2]: bound

Substance: CSMSAKKKC
- enrichment in TRAMP tumors relative to nonrecombinant phage [8]: about 30 fold
- binding to TRAMP tumor derived cell suspensions (in words) [9]: robust binding

Substance: D(KLAKLAK)2-CREAGRKAC (KLAKLAKKLAKLAKCREAGRKAC) [chimera of REA homing peptide with the pro-apoptotic motif D(KLAKLAK)2]
- number of tumor lymphatics (podoplanin staining) [13]: greatly reduced
- tumor blood vessel count/density (MECA-32 staining) [13]: unaffected
- tumor volume / tumor growth [13]: unaffected
- number of tumor lymphatics (podoplanin staining) ([13]; listed as REA conjugate): reduced the number of tumor lymphatics
- tumor blood vessel count/density (MECA-32 staining) ([13]; listed as REA conjugate): no effect
- tumor volume / tumor growth ([13]; listed as REA conjugate): no effect

Substance: FITC-LyP-2: fluorescein-labeled LyP-2 peptide (CNRRTKAGC) ({FITC}-CNRRTKAGC; cysteine pairing not given here)
- fluorescent peptide in normal cervix and control tissues [14]: Little or no fluorescence
- fluorescent peptide in normal cervix and control tissues [14, 18]: No peptide accumulation was observed
- overlap with podoplanin in cervical lesions ([14]; fluorescein-labeled peptide): 82%
- co-localization with MECA-32 ([14]; fluorescein-labeled peptide, cervical lesions): not with MECA-32
- fluorescent peptide in K14-HPV16/E2 cervical lesions/tumors (in words) [14, 18]: accumulated in the cervical lesions
- fluorescent peptide in K14-HPV16/E2 cervical lesions/tumors (in words) ([14]; listed as fluorescein labeled-LyP-2 peptide): homes to cervical carcinoma
